Source: patent US11746100B2 (GLOBAL BLOOD THERAPEUTICS, INC., priority 2020, dated 2023)

Molecular target: T1, human ferroportin (Homo sapiens, UniProt Q9NP59)
T1 construct: luciferase reporter (read with the Nano-Glo Luciferase Assay System); expressed in transfected cells; host or cells: CHO cells, stably transfected, expression induced with doxycycline
T1 sequence (Q9NP59 1-571): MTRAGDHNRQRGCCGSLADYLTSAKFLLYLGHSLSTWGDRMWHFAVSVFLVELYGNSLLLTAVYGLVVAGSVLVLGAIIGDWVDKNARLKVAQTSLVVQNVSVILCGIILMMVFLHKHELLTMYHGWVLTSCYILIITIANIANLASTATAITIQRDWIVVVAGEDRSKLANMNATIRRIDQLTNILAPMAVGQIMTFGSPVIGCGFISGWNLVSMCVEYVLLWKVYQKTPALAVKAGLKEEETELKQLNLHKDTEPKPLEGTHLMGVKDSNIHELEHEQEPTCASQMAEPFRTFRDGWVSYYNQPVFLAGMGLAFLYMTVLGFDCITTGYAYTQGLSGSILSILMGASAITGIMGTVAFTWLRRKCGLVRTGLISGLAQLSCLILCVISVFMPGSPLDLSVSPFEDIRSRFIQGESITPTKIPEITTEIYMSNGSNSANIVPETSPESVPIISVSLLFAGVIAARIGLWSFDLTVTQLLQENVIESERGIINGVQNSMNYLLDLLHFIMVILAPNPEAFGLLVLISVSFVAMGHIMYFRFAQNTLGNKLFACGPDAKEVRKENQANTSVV
Assay: Biological in-vitro ferroportin internalization assay (luciferase reporter)
Type: cell-based
Conditions: average pEC50; stably-transfected CHO cell line expressing human ferroportin tagged to a luciferase reporter; 6 h incubation with test compound
Summary of the method: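 Read-out is Nano-Glo luciferase signal after 6 h compound exposure, with average pEC50 derived. Cells are a stable CHO line carrying luciferase-tagged human ferroportin, pre-loaded 24 h with ferric ammonium citrate and doxycycline-induced for 24 h.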

Row | pEC50 | SMILES
1 | 8.5 | C[C@H](C(=O)NC(C)(C)C)N(C)c1nc(-c2cc(O[C@@H]3CCN(C)C3)ccn2)nc2c1CCC2 [Compound 503, (2R)—N-tert-butyl-2-{methyl[2-(4-{[(3R)-1-methylpyrrolidin-3-yl]oxy}pyridin-2-yl)-5H,6H,7H-cyclopenta[d]pyrimidin-4-yl]amino}propanamide]
2 | 7.9 | CC(C)NC(=O)[C@@H](C)N(C)c1nc(-c2cc(O[C@@H]3CCN(C)C3)ccn2)nc2c1CCC2 [Compound 504, (2R)-2-{methyl[2-(4-{[(3R)-1-methylpyrrolidin-3-yl]oxy}pyridin-2-yl)-5H,6H,7H-cyclopenta[d]pyrimidin-4-yl]amino}-N-(propan-2-yl)propanamide]
3 | 8.8 | CC(C)NC(=O)CN(C)c1nc(-c2cc(OCCN3CCSCC3)ccn2)nc2c1CCC2 [Compound 505, 2-[methyl(2-{4-[2-(thiomorpholin-4-yl)ethoxy]pyridin-2-yl}-5H,6H,7H-cyclopenta[d]pyrimidin-4-yl)amino]-N-(propan-2-yl)acetamide]
4 | 8.0 | CSCCOc1ccnc(-c2nc3c(c(N(C)CC(=O)NC(C)(C)C)n2)CCC3)c1 [Compound 506, N-tert-butyl-2-[methyl(2-{4-[2-(methylsulfanyl)ethoxy]pyridin-2-yl}-5H,6H,7H-cyclopenta[d]pyrimidin-4-yl)amino]acetamide]
5 | 7.9 | CN(CC(=O)NC(C)(C)C)c1nc(-c2cc(OCCS(C)(=O)=O)ccn2)nc2c1CCC2 [Compound 507, N-tert-butyl-2-({2-[4-(2-methanesulfonylethoxy)pyridin-2-yl]-5H,6H,7H-cyclopenta[d]pyrimidin-4-yl}(methyl)amino)acetamide]
6 | 7.6 | [2H]C([2H])([2H])N(CCOc1ccnc(-c2nc3c(c(N(C)CC(=O)NC(C)(C)C)n2)CCC3)c1)C([2H])([2H])[2H] [Compound 508, N-tert-butyl-2-{[2-(4-{2-[di(2H3)methylamino]ethoxy}pyridin-2-yl)-5H,6H,7H-cyclopenta[d]pyrimidin-4-yl](methyl)amino}acetamide]
7 | 8.2 | [2H]C([2H])([2H])N(CC(=O)NC(C)(C)C)c1nc(-c2cc(OCC(C)(C)O)ccn2)nc2c1CCC2 [Compound 509, N-tert-butyl-2-({2-[4-(2-hydroxy-2-methylpropoxy)pyridin-2-yl]-5H,6H,7H-cyclopenta[d]pyrimidin-4-yl}((2H3)methyl)amino)acetamide]
